Measurements: US11285135B2 (AMGEN INC., priority 2016, dated 2022)

Assays:
[1] = molecular target: GDP-bound BRAS protein (aa 1-169), containing both G12C and C118A amino acid substitutions (Homo sapiens, UniProt P01116, C118A/G12C); assay: Coupled Nucleotide Exchange Assay (SOS-mediated nucleotide exchange, AlphaScreen); format: biochemical; conditions: 2 hours compound pre-incubation
Summary of the method: (§1)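 AlphaScreen signal after SOS (aa 564-1049)/GTP-driven exchange (1 h) on GDP-loaded His-[…] G12C/C118A (aa 1-169), following a 2 h compound pre-incubation in HEPES pH 7.4 buffer with 10 mM MgCl2 and 0.01% Triton X-100. IC50s fitted by 4-parameter logistic model.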

[2] = molecular target: GDP-bound protein (aa 1-169), containing both G12C and C118A amino acid substitutions (Homo sapiens, UniProt P01116, C118A/G12C); assay: as above; format: biochemical; conditions: 2 hours compound pre-incubation
Summary of the method: as §1

[3] = tested on: Phosphorylation of ERK½ in MIA PaCa-2 cells; assay: Phospho-ERK½ MSD Assay in MIA PaCa-2 cells; format: cell-based; conditions: Homo sapiens, MIA PaCa-2, MIA PaCa-2 cells; 4 hours compound treatment; 10 ng/mL EGF for 10 min; read-out: p-ERK IC50 (MIA PaCa-2)
Summary of the method: (§2)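 MIA PaCa-2 or A549 cells (25,000/well, RPMI with 10% FBS) exposed to compound titration for 4 h at 37 °C, then stimulated with 10 ng/mL EGF for 10 min and lysed in RIPA. Phospho-ERK1/2 quantified by MSD whole-cell lysate immunoassay; IC50 from 4-parameter logistic fit.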

[4] = tested on: Phosphorylation of ERK½ in A549 cells; assay: Phospho-ERK½ MSD Assay in A549 cells; format: cell-based; conditions: Homo sapiens, A549, A549 cells; 4 hours compound treatment; 10 ng/mL EGF for 10 min; read-out: p-ERK IC50 (A549)
Summary of the method: as §2

GDP-bound protein (aa 1-169), containing both G12C and C118A amino acid substitutions, sequence (P01116 1-169 isoform P01116-2 G12C/C118A): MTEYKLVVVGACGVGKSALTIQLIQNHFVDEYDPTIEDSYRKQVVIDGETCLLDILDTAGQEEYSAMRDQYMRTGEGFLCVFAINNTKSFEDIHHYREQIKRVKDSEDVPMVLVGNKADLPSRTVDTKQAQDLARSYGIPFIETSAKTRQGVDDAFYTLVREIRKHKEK
GDP-bound BRAS protein (aa 1-169), containing both G12C and C118A amino acid substitutions, sequence (P01116 1-169 isoform P01116-2 G12C/C118A): as above

Row | SMILES | IC50 [1] | Coupled exchange IC50 [2] | IC50 [3] | IC50 [4]
1 | C=CC(=O)N1CCN(c2nc(=O)n(-c3ccccc3C(C)C)c3cc(Br)c(Cl)cc23)[C@@H](C)C1 [Example 9-2, 7-bromo-6-chloro-4-((2S)-2-methyl-4-(2-propenoyl)-1-piperazinyl)-1-(2-(2-propanyl)phenyl)-2(1H)-quinazolinone] | 0.289 µM |  |  | 
2 | C=CC(=O)N1CCN(c2nnc(C3CC3)c3cc(-c4c(O)cccc4F)c(Cl)cc23)CC1 [Example 12, 1-(4-(7-Chloro-4-cyclopropyl-6-(2-fluoro-6-hydroxyphenyl)-1-phthalazinyl)-1-piperazinyl)-2-propen-1-one] |  | 3.34 µM | 25.9 µM | > 100 µM
3 | C=CC(=O)N1CCN(c2nnc(Nc3ccccc3)c3cc(-c4c(O)cccc4F)c(Cl)cc23)CC1 [Example 13, 1-(4-(4-Anilino-7-chloro-6-(2-fluoro-6-hydroxyphenyl)-1-phthalazinyl)-1-piperazinyl)-2-propen-1-one] |  | 5.20 µM | > 100 µM | > 100 µM
4 | C=CC(=O)N1CCN(c2nnc(Oc3ccccc3)c3cc(-c4c(O)cccc4F)c(Cl)cc23)CC1 [Example 16, 1-(4-(7-Chloro-6-(2-fluoro-6-hydroxyphenyl)-4-phenoxy-1-phthalazinyl)-1-piperazinyl)-2-propen-1-one] |  | 2.93 µM | 8.62 µM | 33.3 µM
5 | C=CC(=O)N1CCN(c2snc3c(F)c(-c4cc(O)cc5ccccc45)c(Cl)cc23)C(C(=O)O)C1 (stereo not shown) [Example 22, 1-(5-chloro-7-fluoro-6-(3-hydroxy-1-naphthalenyl)-2,1-benzothiazol-3-yl)-4-(2-propenoyl)-2-piperazinecarboxylic acid] |  | 0.927 µM | 56.1 µM | > 100 µM
6 | C=CC(=O)N1CCN(c2snc3c(F)c(-c4c(C5CC5)ccc5[nH]ncc45)c(Cl)cc23)CC1 [Example 23, 1-(4-(5-chloro-6-(5-cyclopropyl-1H-indazol-4-yl)-7-fluoro-2,1-benzothiazol-3-yl)-1-piperazinyl)-2-propen-1-one] |  | 3.29 µM | 3.21 µM | > 33.3 µM
7 | C=CC(=O)N1CCN(c2snc3c(F)c(-c4nc(N)cc5ccccc45)c(Cl)cc23)CC1 [Example 25, 1-(4-(6-(3-Amino-1-isoquinolinyl)-5-chloro-7-fluoro-2,1-benzothiazol-3-yl)-1-piperazinyl)-2-propen-1-one] |  | 0.251 µM | 0.786 µM | > 100 µM
8 | C=CC(=O)N1CCN(c2snc3c(F)c(-c4cc(N)nc5ccccc45)c(Cl)cc23)CC1 [Example 26, 1-(4-(6-(2-amino-4-quinolinyl)-5-chloro-7-fluoro-2,1-benzothiazol-3-yl)-1-piperazinyl)-2-propen-1-one] |  | 3.90 µM | 30.3 µM | > 100 µM
9 | C=CC(=O)N1CCN(c2nnc(-c3ccccc3C(C)C)c3cc(-c4c(O)cccc4F)c(C)nc23)CC1 [Example 27, 1-(4-(3-(2-Fluoro-6-hydroxyphenyl)-2-methyl-5-(2-(2-propanyl)phenyl)pyrido[2,3-d]pyridazin-8-yl)-1-piperazinyl)-2-propen-1-one] |  | 1.78 µM | 12.8 µM | > 33.3 µM
10 | C=CC(=O)N1CCN(c2nnc(Cc3ccc(F)cc3)c3cc(-c4c(O)cccc4F)c(Cl)cc23)CC1 [Example 29, 1-(4-(7-Chloro-4-(4-fluorobenzyl)-6-(2-fluoro-6-hydroxyphenyl)-1-phthalazinyl)-1-piperazinyl)-2-propen-1-one] |  | 3.76 µM | > 100 µM | > 100 µM
11 | C=CC(=O)N1CCN(c2nnc(-c3ccccc3)c3cc(-c4c(O)cccc4F)c(Cl)cc23)CC1 [Example 30, 2-(1-(4-Acryloyl-1-piperazinyl)-7-chloro-4-phenyl-6-phthalazinyl)-3-fluorophenol] |  | 7.51 µM | 58 µM | > 100 µM
12 | C=CC(=O)N1CCN(c2nnc(Cc3ccccc3)c3cc(-c4c(O)cccc4F)c(Cl)cc23)CC1 [Example 35, 2-(1-(4-acryloyl-1-piperazinyl)-4-benzyl-7-chloro-6-phthalazinyl)-3-fluorophenol] |  | 8.01 µM | 79.7 µM | > 100 µM
13 | C=CC(=O)N1CCN(c2nc(=O)n(CC3CC3)c3nc(-c4c(O)cccc4F)c(Cl)cc23)CC1 [Example 38, 6-chloro-1-(cyclopropylmethyl)-7-(2-fluoro-6-hydroxyphenyl)-4-(4-(2-propenoyl)-1-piperazinyl)pyrido[2,3-d]pyrimidin-2(1H)-one] |  | 0.484 µM | 1.39 µM | > 33.3 µM

Other lines, results leading:

Row | IC50 [1] | Coupled exchange IC50 [2] | IC50 [3] | IC50 [4] | SMILES
14 |  | 0.516 µM | 14.7 µM | > 100 µM | C=CC(=O)N1CCN(c2nnc(-c3ccccc3Cl)c3cc(-c4c(O)cccc4F)c(Cl)cc23)CC1 [Example 10-11, 1-(4-(7-chloro-4-(2-chlorophenyl)-6-(2-fluoro-6-hydroxyphenyl)-1-phthalazinyl)-1-piperazinyl)-2-propen-1-one]
15 |  | 0.912 µM | 72.6 µM | > 100 µM | C=CC(=O)N1CCN(c2nnc(-c3c(C)ccc4[nH]ncc34)c3cc(-c4c(O)cccc4F)c(Cl)cc23)CC1 [Example 10-12, 1-(4-(7-chloro-6-(2-fluoro-6-hydroxyphenyl)-4-(5-methyl-1H-indazol-4-yl)-1-phthalazinyl)-1-piperazinyl)-2-propen-1-one]
16 |  | 1.02 µM | 2.6 µM | 49.1 µM | CN(C)C/C=C/C(=O)N1CCN(c2snc3c(F)c(-c4cc(O)cc5ccccc45)c(Cl)cc23)CC1 [Example 17-2, (2E)-1-(4-(5-chloro-7-fluoro-6-(3-hydroxy-1-naphthalenyl)-2,1-benzothiazol-3-yl)-1-piperazinyl)-4-(dimethylamino)-2-buten-1-one]
17 |  | 0.760 µM | > 100 µM | > 100 µM | C=C(CBr)C(=O)N1CCN(c2snc3c(F)c(-c4cc(O)cc5ccccc45)c(Cl)cc23)CC1 [Example 18-2, 2-(Bromomethyl)-1-(4-(5-chloro-7-fluoro-6-(3-hydroxy-1-naphthalenyl)-2,1-benzothiazol-3-yl)-1-piperazinyl)-2-propen-1-one]
18 |  | 1.62 µM | 4.69 µM | 3.7 µM | C=CC(=O)N1CCN(c2snc3c(F)c(-c4cc(O)cc5cnn(C)c45)c(Cl)cc23)CC1 [Example 19-2, 1-(4-(5-chloro-7-fluoro-6-(5-hydroxy-1-methyl-1H-indazol-7-yl)-2,1-benzothiazol-3-yl)-1-piperazinyl)-2-propen-1-one]
